Values after ≈ are worked out from the molar mass of the structure shown. Values joined by “and” are separate entries in the source; they are usually repeats but may differ in a detail not shown here. Equal entries are not always repeated.
What was measured:
kidney GSTs = test: In vitro GST enzyme assay (CDNB/GSH) with kidney cytosolic fractions of control rats; type: biochemical, male Sprague–Dawley rats; settings: CDNB substrate
Procedure: (§1) Throughout the procedure tissue fractions were kept cold (0–4 °C) by using pre-cooled homogenization medium (50 mM Tris–HCl containing 0.154 M KCl) and keeping centrifuge rotors, tissue homogenizer, measuring cylinders, beakers and centrifuge tubes in ice. Excess blood was removed from the liver by perfusing the livers with ice cold normal saline using a Pharmacia LKB pump P-1 (Pharmacia, Uppsala, Sweden) at a flow rate of 50 ml/h through the still beating heart then gently blotting with dry tissue paper. Perfusion was performed in situ to remove blood. The livers and kidneys were removed and blotted dry. The liver or kidney samples were, weighed, wet mass recorded and livers quickly transferred to a homogenizing vessel, which was kept, on ice. Homogenizing medium 50 mM Tris–HCl pH 7.4 containing 154 mM KCl was added to each sample (5 ml/g of liver). The liver or kidney samples were cut into suitable pieces and homogenized with a motor driven Potter-Elvehjem homogenizer type R2R (Heidolph Elektro KG., Kelheim, Germany). […] The final volume was recorded and “parafilm ^TM” (Sigma-Aldrich Co., Steinheim, Germany) was added to cover. […] Protein content in the liver and kidney cytosolic fractions was determined using the Lowry method. The total GST activity in cell supernatants was measured spectrophotometrically using final concentrations of 1 mM 1-chloro-2,4-dinitrobenzene (CDNB) and 1 mM glutathione, as substrates in 0.1 M potassium phosphate buffer pH 6.5, and GST (0.125 mg/ml protein). Cytosolic glutathione transferases activities were assessed using 0.5 mg/ml and 2 mg/ml enzyme dilutions for the liver and kidney samples respectively. […] GST mediated conjugation of 1-chloro-2, 4- dinitrobenzene (CDNB) to glutathione (GSH) was measured using 96-well microtitre plates in a microplate reader (Biokinetics reader EL 340 microplate, Highland Park, 998, Winsooki, VT, USA). […] After addition of CDNB, the plate was transferred to the microplate reader. The plate was read at 5-min intervals for a total of 15 min.

rat liver GSTs = test: In vitro GST enzyme assay (CDNB/GSH) with liver cytosolic fractions of control rats; type: biochemical, male Sprague–Dawley rats; settings: CDNB substrate
Procedure: as §1

C=C(CC)C(=O)c1ccc(OCC(=O)O)c(Cl)c1Cl [ETA, ethacrynic acid]
IC50 (kidney GSTs; kidney cytosol from corn oil-treated control group, P. curatellifolia experiments): 3.7 µg/mL (≈ 12.2 µM) | IC50 (kidney GSTs; kidney cytosol from normal saline treated control group, P. curatellifolia experiments): 7.36 µg/mL and 7.4 µg/mL | IC50 (kidney GSTs; kidney cytosol from saline-treated control group, C. zeyheri experiments): 10 µg/mL (≈ 33 µM) | IC50 (rat liver GSTs; liver cytosol from corn oil-treated control group, P. curatellifolia experiments): 10 µg/mL (≈ 33 µM) | IC50 (rat liver GSTs; liver cytosol from normal saline treated control group, P. curatellifolia experiments): 5.8 µg/mL and 6 µg/mL | IC50 (rat liver GSTs; liver cytosol from saline-treated control group, C. zeyheri experiments): 5.4 µg/mL (≈ 17.8 µM)
